Test results from US11098056B2, “UDP glycosyltransferase inhibitors and methods of use” (GENZYME CORPORATION, priority 2018, dated 2021).
Where a name gives a salt, the structure may show the parent alone.

Legend:
UGT8 [1] = target: T1, UGT8 (Homo sapiens, UniProt Q16880); experiment: In vitro sulfatide (SFT) synthesis inhibition in OE19 cells, LC-MS/MS readout; format: cell-based; settings: 72 hr, sulfatide by LC-MS/MS, read-out: Potency range (IC50, In-vitro SFT)
T1 construct: host or cells: OE19 cells
T1 sequence (Q16880 21-541): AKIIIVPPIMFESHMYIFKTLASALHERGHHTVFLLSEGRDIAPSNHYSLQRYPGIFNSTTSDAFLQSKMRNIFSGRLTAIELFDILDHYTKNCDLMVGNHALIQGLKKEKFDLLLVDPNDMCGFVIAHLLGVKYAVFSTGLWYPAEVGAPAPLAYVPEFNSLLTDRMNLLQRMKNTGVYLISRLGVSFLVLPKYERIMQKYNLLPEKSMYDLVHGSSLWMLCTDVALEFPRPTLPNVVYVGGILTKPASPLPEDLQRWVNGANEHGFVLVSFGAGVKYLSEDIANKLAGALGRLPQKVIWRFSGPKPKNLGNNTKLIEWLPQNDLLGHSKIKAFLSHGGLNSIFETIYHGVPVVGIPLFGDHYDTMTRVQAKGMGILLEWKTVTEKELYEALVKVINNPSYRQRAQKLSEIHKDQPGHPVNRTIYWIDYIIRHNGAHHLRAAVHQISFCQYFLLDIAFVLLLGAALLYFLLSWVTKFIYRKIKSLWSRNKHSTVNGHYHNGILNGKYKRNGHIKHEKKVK
Procedure, shortened: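 OE19 cells, 2,500/well, exposed to compound dose-downs in triplicate for 72 hr at 37° C (screening at 10 μM final). Sulfatide quantified by LC-MS/MS (C8 UPLC, isocratic, negative-ion MRM) with C17 SFT internal standard; IC50 from concentration-response curves.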

UGT8 [2] = target: T2, UGT8 (Mus musculus, UniProt Q64676); experiment: Acute in vivo target engagement in neonatal mouse brain: inhibition of de novo GalCer and SFT synthesis (13C-Gal incorporation); settings: neonatal mouse (P14-P21) brain, 5 hr
T2 construct: Groups of 5 male C57Bl/6 mice, 6-9 wks of age (Charles River Laboratories); tissue Charles River Laboratories; host or cells: mouse kidney (adult C57Bl/6) and mid-/hind brain (neonatal P14-P21 mice)
T2 sequence (Q64676 21-541): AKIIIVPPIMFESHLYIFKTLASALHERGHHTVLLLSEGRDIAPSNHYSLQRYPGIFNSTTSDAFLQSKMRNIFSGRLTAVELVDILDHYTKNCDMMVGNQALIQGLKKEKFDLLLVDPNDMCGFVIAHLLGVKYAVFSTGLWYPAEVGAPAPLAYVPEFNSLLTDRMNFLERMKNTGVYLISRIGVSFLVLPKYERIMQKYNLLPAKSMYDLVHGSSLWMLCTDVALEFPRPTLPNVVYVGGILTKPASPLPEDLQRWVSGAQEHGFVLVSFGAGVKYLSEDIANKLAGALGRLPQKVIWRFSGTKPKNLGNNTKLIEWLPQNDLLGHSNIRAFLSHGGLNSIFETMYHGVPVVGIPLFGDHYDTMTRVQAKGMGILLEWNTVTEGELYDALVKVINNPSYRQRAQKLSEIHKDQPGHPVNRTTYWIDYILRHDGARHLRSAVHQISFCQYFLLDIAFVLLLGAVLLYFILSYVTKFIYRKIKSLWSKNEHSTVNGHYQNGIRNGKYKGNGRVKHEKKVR
Text: SFT biosynthesis and turnover in the myelin of adult mice is very low, necessitating development of a short-term acute model of de novo synthesis inhibition. To do this, we took advantage of the fact that unlike primates in which most developmental myelination occurs in utero, in rodents, peak myelination occurs between postnatal day 14 (P14) and P22.
Groups of 5 neonatal mice age-matched between P14 and P21 received test article formulated in a clinically-acceptable formulation, administered by oral gavage; the control group received vehicle alone. One hr after administration of test article, animals received an i.p. injection of 13C-Gal (3 g/kg); 5 hr after administration of test article, animals were euthanized, brains were removed and dissected for recovery of mid- and hind brain which was snap-frozen and stored at −80° C. until analysis. Plasma samples were also collected for test article exposure analysis.
(§1) Mass Spectrometer Analysis of SFT
(§2) Quantitative analysis of sphingolipids (SLs) was performed using liquid chromatography with tandem mass spectrometry analysis (LC-MS/MS). Briefly, to extract glucosylceramide (GlcCer), galactosylceramide (GalCer), and sulfatide (ST), an aliquot of 10 μL of mouse tissue homogenate (100 mg/ml in water) was mixed with 1 mL of extraction solution (0.2% Formic Acid; 5 mM Ammonium formate in (50:50) Methanol:Acetonitrile (v/v) with internal standards (IS)). C17-ST and D35 labeled C18-GalCer were used for IS. The mixtures were vortexed and centrifuged. The resulting supernatants were transferred to HPLC vials for LC-MS/MS analysis. GlcCer and GalCer were separated using a Waters Acquity UPLC and Atlantis HILIC Silica column (2.1 mm×150 mm, […], Waters Corp., Milford, Mass.) and analyzed by an API 5000 triple quadrupole mass spectrometer in MRM mode (Applied Biosystems, Foster City, Calif.). ST were analyzed using a Waters Acquity UPLC and BEH C18 column (2.1 mm×50 mm, […], Waters Corp., Milford, Mass.) and analyzed by an API 6500 triple quadrupole mass spectrometer in MRM mode (Applied Biosystems, Foster City, Calif.).

UGT8 [3] = target: T2, UGT8; experiment: Acute in vivo target engagement in mouse kidney: inhibition of de novo GalCer and SFT synthesis (13C-Gal incorporation); settings: 5 hr
Description: In vivo target engagement was initially assessed in an adult mouse kidney model assessing de novo synthesis inhibition. This model was selected because the high rate of GalCer and SFT synthesis and turnover in kidney facilitated development of an acute one-day model assessing the effect of a single administration of compound at different doses. Inhibition of de novo synthesis was determined by measuring the amount of 13C6 galactose (13C-Gal; CIL, cat #CLM-1570-pk) incorporated into GalCer and SFT.
Groups of 5 male C57Bl/6 mice, 6-9 wks of age (Charles River Laboratories) were maintained in an ALAAC-accredited vivarium with food and water ad libitum and were allowed to acclimate one week before initiating studies. Three to 5 dose groups received test article formulated in a clinically-acceptable formulation, administered by oral gavage; the control group received vehicle alone. One hr after administration of test article, animals received an intraperitoneal (i.p.) injection of 13C-Gal (3 g/kg); 5 hr after administration of test article, animals were euthanized and a kidney was removed and divided into two longitudinal samples that were snap-frozen and stored at −80° C. until processing for test article tissue exposure and lipid analysis (GalCer and SFT). Typically, brain and plasma samples were also collected for test article exposure.
as §1, §2

CNC(=O)c1csc2c(C(F)(F)F)cc(N3CCC(OC(=O)NC(C)C)CC3)nc12 [Example 76, 1-(3-(Methylcarbamoyl)-7-(trifluoromethyl)thieno[3,2-b]pyridin-5-yl)piperidin-4-yl isopropylcarbamate]
IC50 (UGT8 [1]): < 100 nM | brain GalCer % inh (UGT8 [2]; single oral dose 3 mg/kg): B (40% < B < 80%) | brain Sulfatide % inh (UGT8 [2]; single oral dose 3 mg/kg): B (40% < B < 80%) | brain GalCer % inh (UGT8 [2]; single oral dose 10 mg/kg): A (A > 80%) | brain Sulfatide % inh (UGT8 [2]; single oral dose 10 mg/kg): A (A > 80%) | brain GalCer % inh (UGT8 [2]; single oral dose 30 mg/kg): A (A > 80%) | brain Sulfatide % inh (UGT8 [2]; single oral dose 30 mg/kg): A (A > 80%) | kidney GalCer % inh (UGT8 [3]; single oral dose 1 mg/kg): C (C < 40%) | kidney Sulfatide % inh (UGT8 [3]; single oral dose 1 mg/kg): C (C < 40%) | kidney GalCer % inh (UGT8 [3]; single oral dose 3 mg/kg): B (40% < B < 80%) | kidney Sulfatide % inh (UGT8 [3]; single oral dose 3 mg/kg): B (40% < B < 80%) | kidney GalCer % inh (UGT8 [3]; single oral dose 10 mg/kg): B (40% < B < 80%) | kidney Sulfatide % inh (UGT8 [3]; single oral dose 10 mg/kg): B (40% < B < 80%)

CNC(=O)c1csc2c(C(F)(F)F)cc(N3CCC(OC(=O)NCC4CC4)CC3)nc12 [Example 475, 1-(3-(Methylcarbamoyl)-7-(trifluoromethyl)thieno[3,2-b]pyridin-5-yl)piperidin-4-yl (cyclopropylmethyl)carbamate trifluoroacetate]
kidney GalCer % inh (UGT8 [3]; single oral dose 3 mg/kg): C (C < 40%) | kidney GalCer % inh (UGT8 [3]; single oral dose 10 mg/kg): B (40% < B < 80%) | kidney GalCer % inh (UGT8 [3]; single oral dose 50 mg/kg): B (40% < B < 80%)

CNC(=O)c1csc2c(C(F)(F)F)cc(N3CC[C@H](OC(=O)NC(C)C)[C@@H](F)C3)nc12 [Example 496, (3S,4S)-3-Fluoro-1-(3-(methylcarbamoyl)-7-(trifluoromethyl)thieno[3,2-b]pyridin-5-yl)piperidin-4-yl isopropylcarbamate]
IC50 (UGT8 [1]): < 100 nM | kidney GalCer % inh (UGT8 [3]; single oral dose 10 mg/kg): A, A, A (A > 80%) | kidney Sulfatide % inh (UGT8 [3]; single oral dose 10 mg/kg): A, A, A (A > 80%) | kidney GalCer % inh (UGT8 [3]; single oral dose 30 mg/kg): A, A, A (A > 80%) | kidney Sulfatide % inh (UGT8 [3]; single oral dose 30 mg/kg): A, A, A (A > 80%) | kidney GalCer % inh (UGT8 [3]; single oral dose 100 mg/kg): A, A, A (A > 80%) | kidney Sulfatide % inh (UGT8 [3]; single oral dose 100 mg/kg): A, A, A (A > 80%)

CNC(=O)c1csc2c(C(F)(F)F)cc(N3CCC(OC(=O)N[C@@H](C)CF)CC3)nc12 [Example 693, [1-[3-(Methylcarbamoyl)-7-(trifluoromethyl)thieno[3,2-b]pyridin-5-yl]-4-piperidyl] N-[(1S)-2-fluoro-1-methyl-ethyl]carbamate]
IC50 (UGT8 [1]): < 100 nM | kidney GalCer % inh (UGT8 [3]; single oral dose 1 mg/kg): C (C < 40%) | kidney Sulfatide % inh (UGT8 [3]; single oral dose 1 mg/kg): C (C < 40%) | kidney GalCer % inh (UGT8 [3]; single oral dose 3 mg/kg): C (C < 40%) | kidney Sulfatide % inh (UGT8 [3]; single oral dose 3 mg/kg): C (C < 40%) | kidney GalCer % inh (UGT8 [3]; single oral dose 10 mg/kg): B (40% < B < 80%) | kidney Sulfatide % inh (UGT8 [3]; single oral dose 10 mg/kg): A (A > 80%)

CNC(=O)c1csc2c(C(F)(F)F)cc(N3CCC(OC(=O)N4C[C@@H](N(C)C)[C@@H]4C)CC3)nc12 [Example 794, 1-(3-(Methylcarbamoyl)-7-(trifluoromethyl)thieno[3,2-b]pyridin-5-yl)piperidin-4-yl (2S,3R)-3-(dimethylamino)-2-methylazetidine-1-carboxylate]
IC50 (UGT8 [1]): < 100 nM

CNC(=O)c1csc2c(C(F)(F)F)cc(N3CCC(OC(=O)N4CC5(CCN5C)C4)CC3)nc12 [Example 806, 1-(3-(Methylcarbamoyl)-7-(trifluoromethyl)thieno[3,2-b]pyridin-5-yl)piperidin-4-yl 1-methyl-1,6-diazaspiro[3.3]heptane-6-carboxylate]
IC50 (UGT8 [1]): < 100 nM

CNC(=O)c1csc2c(C(F)(F)F)cc(N3CCC(NC(=O)O[C@H]4CCN(C)[C@H]4C)CC3)nc12 [Example 809, (2S,3S)-1,2-Dimethylpyrrolidin-3-yl (1-(3-(methylcarbamoyl)-7-(trifluoromethyl)thieno[3,2-b]pyridin-5-yl)piperidin-4-yl)carbamate]
IC50 (UGT8 [1]): > 1000 nM

CNC(=O)c1csc2c(C(F)(F)F)cc(N3CCC(NC(=O)OC(C)C)CC3)nc12 [Example 816, Isopropyl (1-(3-(methylcarbamoyl)-7-(trifluoromethyl)thieno[3,2-b]pyridin-5-yl)piperidin-4-yl)carbamate]
IC50 (UGT8 [1]): < 100 nM

CNC(=O)c1csc2c(C(F)(F)F)cc(O[C@H]3C[C@@H](OC(=O)NC4COC4)C3)nc12 [Example 822, (+/−)-cis-(1S,3S)-3-((3-(Methylcarbamoyl)-7-(trifluoromethyl)thieno[3,2-b]pyridin-5-yl)oxy)cyclobutyl oxetan-3-ylcarbamate]
IC50 (UGT8 [1]): 100 to 1000 nM

CNC(=O)c1csc2c(C(F)(F)F)cc(OC3CCN(C(=O)OC4CN(C)CC4F)CC3)nc12 (stereo not drawn) [Example 835, 4-Fluoro-1-methylpyrrolidin-3-yl 4-((3-(methylcarbamoyl)-7-(trifluoromethyl)thieno[3,2-b]pyridin-5-yl)oxy)piperidine-1-carboxylate]
IC50 (UGT8 [1]): 100 to 1000 nM

CNC(=O)c1csc2c(C(F)(F)F)cc(OC3CC4(C3)CN(C(=O)O[C@@H](C)COC(F)(F)F)C4)nc12 [Example 853, (S)-1-(Trifluoromethoxy)propan-2-yl 6-((3-(methylcarbamoyl)-7-(trifluoromethyl)thieno[3,2-b]pyridin-5-yl)oxy)-2-azaspiro[3.3]heptane-2-carboxylate]
IC50 (UGT8 [1]): < 100 nM

CNC(=O)c1csc2c(C(F)(F)F)cc(O[C@H]3CCN(C(=O)OC[C@@H](C)OC(F)(F)F)C3)nc12 [Example 858, (R)-2-(Trifluoromethoxy)propyl (S)-3-((3-(methylcarbamoyl)-7-(trifluoromethyl)thieno[3,2-b]pyridin-5-yl)oxy)pyrrolidine-1-carboxylate]
IC50 (UGT8 [1]): < 100 nM

CNC(=O)c1csc2c(C(F)(F)F)c(C)c(O[C@@H]3CCN(C(=O)O[C@@H](C)C4CC4)[C@H](C)C3)nc12 [Example 866, (S)-1-Cyclopropylethyl (2R,4R)-2-methyl-4-((6-methyl-3-(methylcarbamoyl)-7-(trifluoromethyl)thieno[3,2-b]pyridin-5-yl)oxy)piperidine-1-carboxylate]
IC50 (UGT8 [1]): < 100 nM
